From ChEMBL document CHEMBL5528088, “Design and Synthesis of Cyclolipopeptide Mimics of Dysoxylactam A and Evaluation of the Reversing Potencies against P-Glycoprotein-Mediated Multidrug Resistance” (J Med Chem, 2024)
Converted amounts (≈) assume the structure as drawn. The source made the active and inactive calls. The rule behind the calls is not given here.

How the values were obtained:
[1] = Oral bioavailability in Sprague-Dawley rat at 30 mg/kg measured for 24 hrs by LC-MS analysis; assay type: ADME, organism-based; conditions: in vivo
[2] = Volume of distribution at steady state in Sprague-Dawley rat at 1 mg/kg, iv measured for 24 hrs by LC-MS analysis; assay type: ADME, organism-based; conditions: in vivo, read-out: Vdss
[3] = AUC (infinity) in Sprague-Dawley rat at 30 mg/kg, po measured for 24 hrs by LC-MS analysis; assay type: ADME, organism-based; conditions: in vivo
KBv200 [4] = assay: Inhibition of cell proliferation in human KBv200 cells assessed as inhibition of VNR at 10 uM incubated for 72 hrs in presence of VNR by SRB assay relative to control; assay type: functional
[5] = Half life in Sprague-Dawley rat at 30 mg/kg, po measured for 24 hrs by LC-MS analysis; assay type: ADME, organism-based; conditions: in vivo
KBv200 [6] = assay: Reversal fold, ratio of ADR IC50 to ADR IC50 in presence of test compound for reversal effect on P-gp-mediated multidrug resistance in human KBv200 cells incubated for 72 hrs by SRB assay; assay type: functional
KBv200 [7] = assay: Inhibition of ADR uptake in human KBv200 cells at 10 uM incubated for 10 mins by flow cytometry; assay type: functional, cell-based
KBv200 [8] = assay: Cytotoxicity against human KBv200 cells at 10 uM incubated for 72 hrs by SRB assay relative to control; assay type: functional
[9] = Inhibition of ADR efflux in human KBv200 cells assessed as ADR accumulation at 10 uM incubated for 3 hrs by flow cytometry (reference value: 25.7 %); assay type: functional; design: scale not given: the % may be the effect or the level left
[10] = Aqueous solubility of compound at neutral pH; assay type: physicochemical
[11] = Lipophilicity, logD of compound at pH 7.4; assay type: physicochemical; conditions: buffer
[12] = target: T1, Broad substrate specificity ATP-binding cassette transporter ABCG2 (Homo sapiens, UniProt Q9UNQ0); assay: Inhibition of BCRP (unknown origin) expressed in HEK293 cells assessed as increase in mitoxantrone accumulation by flow cytometry; assay type: cell-based
T1 sequence (Q9UNQ0 whole entry): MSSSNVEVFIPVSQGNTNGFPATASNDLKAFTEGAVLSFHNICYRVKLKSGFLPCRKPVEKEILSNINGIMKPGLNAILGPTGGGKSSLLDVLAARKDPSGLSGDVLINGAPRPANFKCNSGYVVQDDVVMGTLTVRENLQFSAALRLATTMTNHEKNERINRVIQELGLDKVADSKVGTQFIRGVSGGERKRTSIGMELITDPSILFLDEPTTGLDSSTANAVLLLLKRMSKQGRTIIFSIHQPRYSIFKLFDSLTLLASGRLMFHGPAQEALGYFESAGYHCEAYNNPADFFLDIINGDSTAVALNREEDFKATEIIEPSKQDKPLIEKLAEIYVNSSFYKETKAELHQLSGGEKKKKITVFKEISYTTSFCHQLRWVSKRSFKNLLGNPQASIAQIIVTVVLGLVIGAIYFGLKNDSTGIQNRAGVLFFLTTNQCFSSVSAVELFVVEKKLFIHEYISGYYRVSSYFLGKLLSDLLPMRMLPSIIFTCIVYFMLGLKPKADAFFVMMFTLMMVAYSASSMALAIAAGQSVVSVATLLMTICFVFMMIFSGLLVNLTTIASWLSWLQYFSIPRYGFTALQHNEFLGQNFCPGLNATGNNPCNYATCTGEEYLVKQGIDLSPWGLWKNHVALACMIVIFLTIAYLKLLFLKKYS

[13] = Cmax in Sprague-Dawley rat at 30 mg/kg, po measured for 24 hrs by LC-MS analysis; assay type: ADME, organism-based; conditions: in vivo
[14] = Inhibition of ADR efflux in human KBv200 cells assessed as ADR accumulation at 1 uM incubated for 3 hrs by flow cytometry (reference value: 25.7 %); assay type: functional; design: scale not given: the % may be the effect or the level left
KBv200 [15] = assay: Reversal fold, ratio of VNR IC50 to VNR IC50 in presence of test compound for reversal effect on P-gp-mediated multidrug resistance in human KBv200 cells incubated for 72 hrs by SRB assay; assay type: functional
NCI/ADR-RES [16] = assay: Reversal fold, ratio of VNR IC50 to VNR IC50 in presence of test compound for reversal effect on P-gp-mediated multidrug resistance in human NCI/ADR-RES cells incubated for 72 hrs by SRB assay; assay type: functional
[17] = target: Multidrug resistance-associated protein 1 (Homo sapiens, UniProt P33527); assay: Inhibition of MRP1 (unknown origin) expressed in HEK293 cells assessed as increase in mitoxantrone accumulation by flow cytometry; assay type: cell-based
NCI/ADR-RES [18] = assay: Reversal fold, ratio of PTX IC50 to PTX IC50 in presence of test compound for reversal effect on P-gp-mediated multidrug resistance in human NCI/ADR-RES cells incubated for 72 hrs by SRB assay; assay type: functional
KBv200 [19] = assay: Inhibition of ADR efflux in human KBv200 cells incubated for 3 hrs by fluorescence microscopy; assay type: functional, cell-based
KBv200 [20] = assay: Inhibition of calcein AM uptake in human KBv200 cells at 10 uM incubated for 10 mins by flow cytometry; assay type: functional, cell-based
[21] = Inhibition of ADR uptake in human KBv200 cells assessed as ADR accumulation at 1 uM incubated for 10 mins by flow cytometry (reference value: 6.2 %); assay type: functional; design: scale not given: the % may be the effect or the level left
KBv200 [22] = assay: Reversal fold, ratio of VNR IC50 to VNR IC50 in presence of test compound for human KBv200 cells incubated for 72 hrs by SRB assay; assay type: functional
KBv200 [23] = assay: Inhibition of Rho-123 uptake in human KBv200 cells at 10 uM incubated for 10 mins by flow cytometry; assay type: functional, cell-based
[24] = Half life in Sprague-Dawley rat at 1 mg/kg, iv measured for 24 hrs by LC-MS analysis; assay type: ADME, organism-based; conditions: in vivo
[25] = AUClast in Sprague-Dawley rat at 30 mg/kg, po measured for 24 hrs by LC-MS analysis; assay type: ADME, organism-based; conditions: in vivo
KBv200 [26] = assay: Reversal fold, ratio of PTX IC50 to PTX IC50 in presence of test compound for reversal effect on P-gp-mediated multidrug resistance in human KBv200 cells incubated for 72 hrs by SRB assay; assay type: functional
KBv200 [27] = assay: Antitumor activity against human KBv200 cells xenografted in Balb/cA nude mouse assessed as decrease in tumor size at 75 mg/kg, ip administered upto day 8 and measured for 14 days; assay type: functional, organism-based; conditions: time 14.0 day
NCI/ADR-RES [28] = assay: Reversal fold, ratio of ADR IC50 to ADR IC50 in presence of test compound for reversal effect on P-gp-mediated multidrug resistance in human NCI/ADR-RES cells incubated for 72 hrs by SRB assay; assay type: functional
KBv200 [29] = assay: Antitumor activity against human KBv200 cells xenografted in Balb/cA nude mouse assessed as decrease in tumor volume at 75 mg/kg, ip administered upto day 8 and measured for 14 days in presence of VNR; assay type: functional, organism-based; conditions: time 14.0 day
[30] = AUC (infinity) in Sprague-Dawley rat at 1 mg/kg, iv measured for 24 hrs by LC-MS analysis; assay type: ADME, organism-based; conditions: in vivo
KBv200 [31] = assay: Antitumor activity against human KBv200 cells xenografted in Balb/cA nude mouse assessed as decrease in tumor weight at 75 mg/kg, ip administered upto day 8 and measured for 14 days in presence of VNR; assay type: functional, organism-based; conditions: time 14.0 day
[32] = AUClast in Sprague-Dawley rat at 1 mg/kg, iv measured for 24 hrs by LC-MS analysis; assay type: ADME, organism-based; conditions: in vivo
[33] = Inhibition of ADR uptake in human KBv200 cells assessed as ADR accumulation at 10 uM incubated for 10 mins by flow cytometry (reference value: 6.2 %); assay type: functional; design: scale not given: the % may be the effect or the level left
[34] = MRT (infinity) in Sprague-Dawley rat at 1 mg/kg, iv measured for 24 hrs by LC-MS analysis; assay type: ADME, organism-based; conditions: in vivo
[35] = Toxicity in Balb/cA nude mouse xenografted with human KBv200 cells assessed as animal mortality at 75 mg/kg, ip administered upto day 8 and measured for 14 days; assay type: organism-based; conditions: in vivo, 336 h, time 14 day
KBv200 [36] = assay: Effect on P-gp level in human KBv200 cells at 1 to 10 uM incubated for 24 hrs by Western blot analysis; assay type: functional, cell-based; conditions: dose 1-10 µM
[37] = Tmax in Sprague-Dawley rat at 30 mg/kg, po measured for 24 hrs by LC-MS analysis; assay type: ADME, organism-based; conditions: in vivo
KBv200 [38] = assay: Effect on P-gp level in human KBv200 cells incubated for 24 hrs by qRT-PCR analysis; assay type: functional, cell-based
KBv200 [39] = assay: Inhibition of ADR uptake in human KBv200 cells at 10 uM incubated for 10 mins by fluorescence microscopy; assay type: functional, cell-based
[40] = Toxicity in Balb/cA nude mouse xenografted with human KBv200 cells assessed as change in body weight at 75 mg/kg, ip administered upto day 8 and measured for 14 days; assay type: organism-based; conditions: in vivo, 336 h, time 14 day
[41] = MRT (infinity) in Sprague-Dawley rat at 30 mg/kg, po measured for 24 hrs by LC-MS analysis; assay type: ADME, organism-based; conditions: in vivo
NCI/ADR-RES [42] = assay: Effect on P-gp level in human NCI/ADR-RES cells at 1 to 10 uM incubated for 24 hrs by Western blot analysis; assay type: functional, cell-based; conditions: dose 1-10 µM
KBv200 [43] = assay: Reversal effect on P-gp-mediated multidrug resistance in human KBv200 cells assessed as inhibition of cell proliferation incubated for 72 hrs by SRB assay; assay type: functional, cell-based; conditions: KBv200, 72 h
KBv200 [44] = assay: Inhibition of cell proliferation in human KBv200 cells incubated for 72 hrs by SRB assay; assay type: functional, cell-based; conditions: KBv200, 72 h
KBv200 [45] = assay: Antitumor activity against human KBv200 cells xenografted in Balb/cA nude mouse assessed as decrease in tumor size at 8 mg/kg, iv administered on day 0,4,8 and measured for 14 days; assay type: functional, organism-based; conditions: time 14.0 day
KBv200 [46] = assay: Inhibition of cell proliferation in human KBv200 cells at 10 uM incubated for 72 hrs by SRB assay relative to control; assay type: functional
NCI/ADR-RES [47] = assay: Reversal effect on P-gp-mediated multidrug resistance in human NCI/ADR-RES cells assessed as inhibition of cell proliferation incubated for 72 hrs by SRB assay; assay type: functional, cell-based

Sequence of Multidrug resistance-associated protein 1 (P33527 whole entry): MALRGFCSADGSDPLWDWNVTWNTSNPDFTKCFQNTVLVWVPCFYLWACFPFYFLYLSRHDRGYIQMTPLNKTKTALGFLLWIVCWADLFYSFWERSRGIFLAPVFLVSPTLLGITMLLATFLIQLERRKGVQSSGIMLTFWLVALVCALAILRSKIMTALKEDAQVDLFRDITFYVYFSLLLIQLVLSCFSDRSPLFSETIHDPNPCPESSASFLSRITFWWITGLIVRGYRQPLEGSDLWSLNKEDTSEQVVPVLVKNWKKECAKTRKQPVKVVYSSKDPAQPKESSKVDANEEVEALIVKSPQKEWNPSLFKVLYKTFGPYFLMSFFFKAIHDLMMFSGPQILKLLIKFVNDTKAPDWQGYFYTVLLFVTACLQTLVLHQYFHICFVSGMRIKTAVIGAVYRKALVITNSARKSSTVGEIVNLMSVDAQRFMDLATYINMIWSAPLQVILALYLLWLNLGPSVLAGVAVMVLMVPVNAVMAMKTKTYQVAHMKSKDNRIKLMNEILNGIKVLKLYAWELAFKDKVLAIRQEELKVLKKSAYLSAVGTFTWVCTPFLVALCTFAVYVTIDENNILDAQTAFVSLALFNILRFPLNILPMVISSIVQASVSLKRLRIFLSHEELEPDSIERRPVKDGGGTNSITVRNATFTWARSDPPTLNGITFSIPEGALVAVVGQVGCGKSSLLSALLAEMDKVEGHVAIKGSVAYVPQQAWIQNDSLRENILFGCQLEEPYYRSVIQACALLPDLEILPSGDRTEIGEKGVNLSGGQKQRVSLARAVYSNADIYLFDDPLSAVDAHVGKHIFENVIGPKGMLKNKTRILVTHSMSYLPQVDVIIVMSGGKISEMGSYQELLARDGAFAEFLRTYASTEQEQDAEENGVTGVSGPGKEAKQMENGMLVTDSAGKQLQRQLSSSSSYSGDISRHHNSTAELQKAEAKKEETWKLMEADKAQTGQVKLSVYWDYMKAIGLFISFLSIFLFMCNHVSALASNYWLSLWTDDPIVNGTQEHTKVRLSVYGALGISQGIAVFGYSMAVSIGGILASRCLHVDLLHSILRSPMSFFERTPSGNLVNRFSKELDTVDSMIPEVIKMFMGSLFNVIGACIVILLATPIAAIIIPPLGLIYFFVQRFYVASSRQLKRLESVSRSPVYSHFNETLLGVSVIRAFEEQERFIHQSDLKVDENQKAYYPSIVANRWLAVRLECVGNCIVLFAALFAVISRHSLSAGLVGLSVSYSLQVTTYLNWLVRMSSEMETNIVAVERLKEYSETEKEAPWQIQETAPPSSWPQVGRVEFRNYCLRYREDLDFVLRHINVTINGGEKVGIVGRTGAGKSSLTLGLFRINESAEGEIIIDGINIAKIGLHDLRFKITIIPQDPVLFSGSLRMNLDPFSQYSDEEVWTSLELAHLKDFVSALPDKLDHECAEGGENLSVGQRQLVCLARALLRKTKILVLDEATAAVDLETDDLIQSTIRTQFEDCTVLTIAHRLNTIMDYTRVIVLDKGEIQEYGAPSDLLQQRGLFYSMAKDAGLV

CC(C)[C@@H]1NC(=O)CCCCCCCCCCCC(=O)N[C@@H](Cc2ccccc2)COC1=O
bioavailability [1]: 0.09% | Vd [2]: 1.53 L/kg | AUC(0-inf) [3]: 43.4 ng·h/mL | inhibition at 10 µM (KBv200 [4]): 96.9% | half-life [5]: 2.38 h | Ratio IC50 (KBv200 [6]): 12.1 | inhibition (KBv200 [7]): inactive | Activity (KBv200 [8]): 2.7% | Activity [9]: 88.6% | solubility [10]: 0.64 µg/mL (≈ 1.4 µM) | logD [11]: 5 | inhibition (INH) [12]: Active | Cmax [13]: 34.4 ng/mL | Activity [14]: 33.8% | Ratio IC50 (KBv200 [15]): 102.4 | Ratio IC50 (NCI/ADR-RES [16]): 133.4 | inhibition (INH) [17]: Active | Ratio IC50 (NCI/ADR-RES [18]): 159.9 | inhibition (KBv200 [19]): Active | inhibition (KBv200 [20]): Active | Activity [21]: 6.6% | Ratio IC50 (KBv200 [22]): 124 | inhibition (KBv200 [23]): Active | half-life [24]: 1.09 h | AUC(0-t) at 24 h [25]: 32.3 ng·h/mL | Ratio IC50 (KBv200 [26]): 49.6 | Activity (KBv200 [27]): Active | Ratio IC50 (NCI/ADR-RES [28]): 33.9 | Activity (KBv200 [29]): Active | AUC [30]: 1263 ng·h/mL | Activity (KBv200 [31]): Active | AUC(0-t) at 24 h [32]: 1260 ng·h/mL | Activity [33]: 86.4% | MRT inf [34]: 0.75 h | Activity [35]: Non-Toxic | Activity (KBv200 [36]): inactive | Tmax [37]: 0.25 h | Activity (KBv200 [38]): inactive | inhibition (KBv200 [39]): inactive | Activity [40]: Non-Toxic | MRT inf [41]: 3.11 h | Activity (NCI/ADR-RES [42]): inactive

CCC1=C[C@@H]2CN(C1)Cc1c([nH]c3ccccc13)[C@@](C(=O)OC)(c1cc3c(cc1OC)N(C)[C@H]1[C@@](O)(C(=O)OC)[C@H](OC(C)=O)[C@]4(CC)C=CCN5CC[C@]31[C@@H]54)C2 [VINORELBINE]
IC50 (KBv200 [43]): 205 nM | IC50 (KBv200 [44]): 298 nM | Activity (KBv200 [45]): Active | inhibition at 10 µM (KBv200 [46]): 4.9% | IC50 (NCI/ADR-RES [47]): 3720 nM
